Key:
Test in all cases: relative viability (nuclei count vs DMSO), 5 days (fraction); higher = more cells survive
NCI-H3122 = test system: NCI-H3122
How it was run: (§1)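 Relative viability equals treated-well nuclei counts divided by vehicle-well nuclei counts. Counts came from 4× images of lung cancer cell lines grown in 1536-well plates for 5 days after pin-tool dosing on the day after seeding. Dosing used one drug alone or a fixed anchor-drug dose plus five library-drug doses (not always all listed) in √10 steps, and values are medians of duplicate plates.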

LK-2 = test system: LK-2
How it was run: as §1

HCC-366 = test system: HCC-366
How it was run: as §1

RERF-LC-KJ = test system: RERF-LC-KJ
How it was run: as §1

LC-2-ad = test system: LC-2-ad
How it was run: as §1

SK-MES-1 = test system: SK-MES-1
How it was run: as §1

HCC-78 = test system: HCC-78
How it was run: as §1

NCI-H838 = test system: NCI-H838
How it was run: as §1

NCI-H2405 = test system: NCI-H2405
How it was run: as §1

NCI-H2228 = test system: NCI-H2228
How it was run: as §1

HOP-62 = test system: HOP-62
How it was run: as §1

NCI-H1355 = test system: NCI-H1355
How it was run: as §1

Compound: O=C(O)CCCCC(CCSCc1ccccc1)SCc1ccccc1 (configuration not stated) [CPI-613] + CC1(C)CCC(c2ccc(Cl)cc2)=C(CN2CCN(c3ccc(C(=O)NS(=O)(=O)c4ccc(N[C@H](CCN5CCOCC5)CSc5ccccc5)c(S(=O)(=O)C(F)(F)F)c4)cc3)CC2)C1 [Navitoclax] (partner 0.5 µM)
- relative viability (NCI-H3122; first compound 5 µM): 0.992
- relative viability (NCI-H3122; first compound 15.81 µM): 1.06
- relative viability (NCI-H3122; first compound 50 µM): 0.988
- relative viability (NCI-H3122; first compound 158.11 µM): 0.571
- relative viability (NCI-H3122; first compound 500 µM): 0.0262
- relative viability (LK-2; first compound 5 µM): 0.957
- relative viability (LK-2; first compound 15.81 µM): 0.922
- relative viability (LK-2; first compound 50 µM): 1.05
- relative viability (LK-2; first compound 158.11 µM): 0.966
- relative viability (LK-2; first compound 500 µM): 0.87
- relative viability (HCC-366; first compound 5 µM): 1.03
- relative viability (HCC-366; first compound 15.81 µM): 0.99
- relative viability (HCC-366; first compound 50 µM): 1.1
- relative viability (HCC-366; first compound 158.11 µM): 0.774
- relative viability (HCC-366; first compound 500 µM): 0.0086
- relative viability (RERF-LC-KJ; first compound 5 µM): 1.01
- relative viability (RERF-LC-KJ; first compound 15.81 µM): 0.747
- relative viability (RERF-LC-KJ; first compound 50 µM): 1.27
- relative viability (RERF-LC-KJ; first compound 158.11 µM): 0.964
- relative viability (RERF-LC-KJ; first compound 500 µM): 0.756
- relative viability (LC-2-ad; first compound 5 µM): 0.431
- relative viability (LC-2-ad; first compound 15.81 µM): 0.354
- relative viability (LC-2-ad; first compound 50 µM): 0.297
- relative viability (LC-2-ad; first compound 158.11 µM): 0.0601
- relative viability (LC-2-ad; first compound 500 µM): 0.0074
- relative viability (SK-MES-1; first compound 5 µM): 1.08
- relative viability (SK-MES-1; first compound 15.81 µM): 1.17
- relative viability (SK-MES-1; first compound 50 µM): 1.1
- relative viability (SK-MES-1; first compound 158.11 µM): 1.03
- relative viability (SK-MES-1; first compound 500 µM): 1
- relative viability (HCC-78; first compound 5 µM): 0.731
- relative viability (HCC-78; first compound 15.81 µM): 0.749
- relative viability (HCC-78; first compound 158.11 µM): 0.783
- relative viability (HCC-78; first compound 500 µM): 0.876
- relative viability (NCI-H838; first compound 5 µM): 1.12
- relative viability (NCI-H838; first compound 15.81 µM): 1.01
- relative viability (NCI-H838; first compound 50 µM): 1.03
- relative viability (NCI-H838; first compound 158.11 µM): 0.39
- relative viability (NCI-H838; first compound 500 µM): 0.113
- relative viability (NCI-H2405; first compound 5 µM): 0.929
- relative viability (NCI-H2405; first compound 15.81 µM): 0.796
- relative viability (NCI-H2405; first compound 50 µM): 0.765
- relative viability (NCI-H2405; first compound 158.11 µM): 0.795
- relative viability (NCI-H2405; first compound 500 µM): 0.67
- relative viability (NCI-H2228; first compound 5 µM): 1.04
- relative viability (NCI-H2228; first compound 15.81 µM): 0.755
- relative viability (NCI-H2228; first compound 50 µM): 0.758
- relative viability (NCI-H2228; first compound 158.11 µM): 0.297
- relative viability (NCI-H2228; first compound 500 µM): 0.0138
- relative viability (HOP-62; first compound 5 µM): 0.927
- relative viability (HOP-62; first compound 15.81 µM): 0.992
- relative viability (HOP-62; first compound 50 µM): 0.978
- relative viability (HOP-62; first compound 158.11 µM): 0.984
- relative viability (HOP-62; first compound 500 µM): 0.911
- relative viability (NCI-H1355; first compound 5 µM): 0.993
- relative viability (NCI-H1355; first compound 15.81 µM): 0.988
- relative viability (NCI-H1355; first compound 50 µM): 1

Reference: the supplement of paper PMC10307832
